In US5071750A, “Enzymatic process for preparing N-acetylneuraminic acid” (Forschungszentrum Juelich GmbH, priority 1989, dated 1991):

How the values were obtained:
[1] = target: T1, N-acylglucosamine-2-epimerase (E.C. 5.1.3.8) (Sus scrofa, UniProt P17560); experiment: relative activity of the epimerase (isomerization of GlcNAc to ManNAc) in the presence of pyruvate or Neu5Ac; format: biochemical; details: as a function of the concentration of the inhibiting substance (FIG. 2A)
T1 sequence (P17560 1-402): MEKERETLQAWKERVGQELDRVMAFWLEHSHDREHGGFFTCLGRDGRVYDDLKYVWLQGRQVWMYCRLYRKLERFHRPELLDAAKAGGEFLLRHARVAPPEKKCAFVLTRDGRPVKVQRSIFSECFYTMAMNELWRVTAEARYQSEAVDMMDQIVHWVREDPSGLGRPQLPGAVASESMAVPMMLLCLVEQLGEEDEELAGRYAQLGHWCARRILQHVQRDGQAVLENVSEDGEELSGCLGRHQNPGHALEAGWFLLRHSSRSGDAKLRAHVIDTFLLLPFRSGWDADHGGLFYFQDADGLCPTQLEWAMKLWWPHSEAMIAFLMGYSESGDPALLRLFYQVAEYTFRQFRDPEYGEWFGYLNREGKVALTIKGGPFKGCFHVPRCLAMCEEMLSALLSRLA

[2] = target: N-acetylneuraminic acid pyruvate lyase (E.C. 4.1.3.3) (Escherichia coli, UniProt P0A6L4); experiment: reverse reaction (cleavage of Neu5Ac) by the lyase in the presence of pyruvate; format: biochemical; details: considerable excess of pyruvate in comparison with the Neu5Ac formed (FIG. 4)
Chain of N-acetylneuraminic acid pyruvate lyase (E.C. 4.1.3.3) (P0A6L4 whole entry): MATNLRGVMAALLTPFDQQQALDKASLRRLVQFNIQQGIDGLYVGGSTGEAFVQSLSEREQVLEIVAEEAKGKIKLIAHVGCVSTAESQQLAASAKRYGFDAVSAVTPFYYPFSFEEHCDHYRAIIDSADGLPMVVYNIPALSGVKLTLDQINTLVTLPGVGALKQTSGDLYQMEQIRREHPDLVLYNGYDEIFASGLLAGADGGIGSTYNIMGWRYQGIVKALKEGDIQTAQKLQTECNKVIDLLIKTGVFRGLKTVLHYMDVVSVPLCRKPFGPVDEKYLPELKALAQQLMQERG
From the text: Because of the large excess of pyruvate, subsequent conversion of the ManNAc to Neu5Ac is promoted.
The Neu5Ac formed is, in accordance with the precision of the equilibrium, subject to more or less strong renewed cleavage by the reverse reaction. Although this reaction is inhibited by an excess of pyruvate (see FIG. 4), it appears advantageous continuously to pass reaction medium from the EMR over an ion exchange column and recycle the rest into the reactor. Alternate use of two columns is advantageous.

Row | SMILES | inhibition of the epimerase-catalysed isomerization of GlcNAc to ManNAc [1] | inhibition of the reverse reaction of Neu5Ac formation [2]
1 | CC(=O)N[C@H]1[C@H]([C@H](O)[C@H](O)CO)OC(O)(C(=O)O)C[C@@H]1O (stereo partly drawn) [N-acetylneuraminic acid] | inhibiting effect | 
2 | CC(=O)C(=O)O [pyruvic acid] | increasingly inhibited | strongly inhibited
